One data set concerns vasa deferentia. The conditions noted are these: rat, in vivo. How it is done: A dose ranging non-GLP study was conducted in rats to determine the local toxic effect of diltiazem on vasa deferentia.
The subject of another data set is sperm in vas. The data set is described as follows: non-GLP study, in vivo effect on motility and viability of sperm in vas. The conditions noted are these: injection, 0.2 mg/kg body weight; saline injected controls 35%. The source says: In another non-GLP study, the in vivo effect of diltiazem on motility and viability of sperm in vas was observed.

As to `COc1ccc([C@@H]2Sc3ccccc3N(CCN(C)C)C(=O)[C@@H]2OC(C)=O)cc1` [diltiazem], the “changes in the histology of the vas” value with vasa deferentia (0.2 mg/kg) is “did not cause any changes in the histology of the vas”. Also, the “effect on the vas” value with vasa deferentia (2 mg/kg) was “no effect on the vas”. Besides, in the data set with vasa deferentia (50 mg/kg), the mortality of rats result is recorded as “no mortality”. The “percentage of non-viable sperm” value in the data set on sperm in vas was 92%.

These data come from patent US20040138198A1, “Vasectomy procedure and related kit” (priority 2001, published 2004).
